Results reported in US6841366B1, “Biotin biosynthesis in bacillus subtilis” (DSM IP Assets B.V., priority 1993, dated 2005).

How the values were obtained:
B. subtilis = test: Stimulation of biotin vitamer production by pimelic acid; assay type: cell-based; settings: 1 g/l
Experimental: In all fermentations, 1 g/l pimelic acid was added to both the initial batch and feed solutions. BI282, BI278 and BI276 were the most optimized for biotin and biotin vitamer production.
Addition of pimelate to the fermentation medium results in an increased level of a biotin vitamer which is probably KAPA (FIG. 15, lane D). This was shown by an increase in the KAPA/BSO spot compared to similar fermentations without pimelate (FIG. 15, lane B).
(§1) Azelaic acid, a straight chain C9 dicarboxylic acid, is a homolog of pimelic acid and is thought to be an intermediate in the conversion of oleic acid to pimelic acid (see Ohsugi and Inoue (1981) Agric. Biol. Chem. 45: 2355-2356, hereby incorporated by reference).

[1] = tested on: E. coli strain RY604(ΔbioH) containing pBIO403; test: Growth of E. coli carrying only B. subtilis bioW, with pimelic acid and azelaic acid; assay type: cell-based
Experimental: A plasmid (pBIO403) containing only the B. subtilis bioW gene and its promoter cloned into pCL1921 (Lerner and Inouye, 1990, supra), complemented both E. coli ΔbioH and bioC mutants, if and only if pimelic acid was added to the medium at about 30 mg/l. This experiment confirmed that bioW encodes a pimelyl-CoA synthetase that can bypass bioH and bioC in E. coli.
(§2) Therefore, Applicants concluded that azelaic acid acts at the level of pimelyl CoA synthetase (bioW), either as a competitive inhibitor of pimelic acid, or by incorporation into a biotin homolog or other toxic intermediate.

PY79 bioI::cat = test: Growth of bioI::cat mutants on biotin-free medium with supplements; assay type: cell-based, B. subtilis
E. coli strain MM294 = test: Azelaic acid sensitivity of wild-type E. coli; assay type: cell-based
Source text: as §2

[2] = tested on: B. subtilis PY79 and azelaic acid resistant mutants; test: Growth inhibition by azelaic acid, minimal agar; assay type: cell-based
Source text: as §1
Seven spontaneous mutants that outgrew the background of PY79 on 2 g/l Azelaic acid were isolated. The resistance to azelaic acid appeared to be a stable trait in all but one case (see below). The seven mutants were provisionally named PA1-PA7 (PY79 Azelaic acid resistant). PA1 through PA7 were grown in test tubes in VY medium, and biotin production was assayed using E. coli indicator strains (Table 15). The mutants fell into two classes, those that yielded more biotin than PY79 (PA5, PA6) and those that were similar to PY79 (PA1, 2, 3, and 7). PA4 appeared to be either unstable or not a true mutant and was dropped from further study. Applicants also noticed that the mutants fell into two classes with respect to colony size on minimal agar with 2 g/l azelaic acid, and that these two classes corresponded to the two classes of biotin producers (Table 11). The mutants with the most biotin in the supernatant (PA5 and PA6) gave small colonies, while the biotin non-secreters, PA1, 2, 3, and 7, gave large colonies. PA1 and PA3 secreted a compound that cross-fed PY79 (i.e., reversed the azelaic acid inhibition of PY79) on minimal plates containing 2 g/l azelaic acid.

SMILES	Effect on biotin vitamer production in B. subtilis (B. subtilis)	Satisfaction of the biotin requirement of RY604(ΔbioH)/pBIO403 ([1]; 30 mg/l)	Restoration of growth of PY79 bioI::cat9 bradytroph (PY79 bioI::cat; 30 mg/l)	Growth of PY79 bioI::cat strains (either cat orientation) on biotin-free medium (PY79 bioI::cat; pimelic acid 33 μg/ml)	Sensitivity of RY604/pBIO403 to azelaic acid ([1]; grown in excess pimelic acid (80 mg/l))	Growth inhibition of PY79 bioI::cat9 (PY79 bioI::cat; 30 mg/l)	Substitution for pimelic acid in supporting growth of PY79 bioI::cat9 (PY79 bioI::cat; 30 mg/l)	Sensitivity of wild-type E. coli MM294 to azelaic acid (E. coli strain MM294)	Growth inhibition of wild-type B. subtilis ([2]; azelaic acid at concentrations higher than 30 mg/l)	Growth inhibition of PY79 ([2]; minimal agar, azelaic acid 2 g/l (about 10^−2 M), did not kill or completely prevent growth)	Colony size on 2 g/l azelaic acid ([2]; strain PA1, minimal agar)	Colony size on 2 g/l azelaic acid ([2]; strain PA2, minimal agar)	Colony size on 2 g/l azelaic acid ([2]; strain PA3, minimal agar)	Colony size on 2 g/l azelaic acid ([2]; strain PA4, minimal agar)	Colony size on 2 g/l azelaic acid ([2]; strain PA5, minimal agar)	Colony size on 2 g/l azelaic acid ([2]; strain PA6, minimal agar)	Colony size on 2 g/l azelaic acid ([2]; strain PA7, minimal agar)	Colony size on 2 g/l azelaic acid ([2]; strain PY79, minimal agar)
O=C(O)CCCCCC(=O)O [pimelic acid]	stimulate biotin vitamer production	can satisfy the biotin requirement	restore wild-type growth	grew to wild-type levels	–	–	–	–	–	–	–	–	–	–	–	–	–	–
O=C(O)CCCCCCCC(=O)O [azelaic acid, Azelaic acid]	–	–	–	–	sensitive to inhibition	severely inhibited the growth	does not substitute for pimelic acid	relatively resistant	inhibits the growth	severely inhibited growth	large	large	large	tiny	small	small	large	tiny
